Molecules are shown by their SMILES.

This is an account of results in patent US20250235543A1, “MODIFIED PROTEINS AND PROTEIN DEGRADERS” (Cullgen (Shanghai), Inc., priority 2021, published 2025).

The subject of the assay is P300/CBP. The assay is described as follows: P300/CBP cellular protein degradation. The format is cell-based. The protocol: Cultured cells were washed with cold PBS once and lysed in cold RIPA buffer supplemented with protease inhibitors and phosphatase inhibitors (Beyotime Biotechnology). The solutions were then incubated at 4° C. for 30 min with gentle agitation to fully lysed cells. Cell lysates were centrifuged at 13,000 rpm for 10 min at 4° C. and pellets were discarded. Total protein concentrations in the lysates were determined following BCA assays (Beyotime Biotechnology). Cell lysates were mixed with Laemmli loading buffer and heated at 99° C. for 5 min. Proteins were resolved on SDS-PAGE and visualized using Western ECL Substrate kits on a ChemiDoc MP Imaging system (Bio-Rad). Protein bands were quantitated using the Image Lab software provided by Bio-Rad.

In the case of `CC(=O)N1CCc2c(c(N3CCCc4cc(-c5cnn(C)c5)c(C(F)F)cc43)nn2C2CCN(CC(=O)NCCCCCC(=O)Nc3ccccc3C(=O)Nc3nc(C)c([N+](=O)[O-])s3)CC2)C1` [CPD-213, 2-(6-(2-(4-(5-Acetyl-3-(7-(difluoromethyl)-6-(1-methyl-1H-pyrazol-4-yl)-3,4-dihydroquinolin-1(2H)-yl)-4,5,6,7-tetrahydro-1H-pyrazolo[4,3-c]pyridin-1-yl)piperidin-1-yl)acetamido)hexanamido)-N-(4-methyl-5-nitrothiazol-2-yl)benzamide], the “P300/CBP Degradation (100 nM)” value was “D (degradation activity < 30%)”.

Consider `CC(=O)N1CCc2c(c(N3CCCc4cc(-c5cnn(C)c5)c(C(F)F)cc43)nn2C2CCN(CC(=O)NCCCCCCCNc3ccc(C(=O)Nc4ncc(C)s4)c(C)c3)CC2)C1` [CPD-194, 4-((7-(2-(4-(5-Acetyl-3-(7-(difluoromethyl)-6-(1-methyl-1H-pyrazol-4-yl)-3,4-dihydroquinolin-1(2H)-yl)-4,5,6,7-tetrahydro-1H-pyrazolo[4,3-c]pyridin-1-yl)piperidin-1-yl)acetamido)heptyl)amino)-2-methyl-N-(5-methylthiazol-2-yl)benzamide], for which the “P300/CBP Degradation (100 nM)” value is on record as “D (degradation activity < 30%)”.

In the case of `CC(=O)N1CCc2c(c(N3CCCc4cc(-c5cnn(C)c5)c(C(F)F)cc43)nn2C2CCN(C(=O)CCCCCCCCCCCC(=O)Nc3ccccc3C(=O)Nc3nc(C)c([N+](=O)[O-])s3)CC2)C1` [CPD-208, 2-(13-(4-(5-Acetyl-3-(7-(difluoromethyl)-6-(1-methyl-1H-pyrazol-4-yl)-3,4-dihydroquinolin-1(2H)-yl)-4,5,6,7-tetrahydro-1H-pyrazolo[4,3-c]pyridin-1-yl)piperidin-1-yl)-13-oxotridecanamido)-N-(4-methyl-5-nitrothiazol-2-yl)benzamide], the “P300/CBP Degradation (100 nM)” value is recorded as “D (degradation activity < 30%)”.

Take `CC(=O)N1CCc2c(c(N3CCCc4cc(-c5cnn(C)c5)c(C(F)F)cc43)nn2C2CCN(CC(=O)NCCOCCOCCNc3ccc(C(=O)Nc4ncc(C)s4)c(C)c3)CC2)C1` [CPD-198, 4-((2-(2-(2-(2-(4-(5-Acetyl-3-(7-(difluoromethyl)-6-(1-methyl-1H-pyrazol-4-yl)-3,4-dihydroquinolin-1(2H)-yl)-4,5,6,7-tetrahydro-1H-pyrazolo[4,3-c]pyridin-1-yl)piperidin-1-yl)acetamido)ethoxy)ethoxy)ethyl)amino)-2-methyl-N-(5-methylthiazol-2-yl)benzamide]: the “P300/CBP Degradation (100 nM)” value was “D (degradation activity < 30%)”.

For `CC(=O)N1CCc2c(c(N3CCCc4cc(-c5cnn(C)c5)c(C(F)F)cc43)nn2C2CCN(CC(=O)NCCCCCCCCC(=O)Nc3ccccc3C(=O)Nc3nc(C)c([N+](=O)[O-])s3)CC2)C1` [CPD-216, 2-(9-(2-(4-(5-Acetyl-3-(7-(difluoromethyl)-6-(1-methyl-1H-pyrazol-4-yl)-3,4-dihydroquinolin-1(2H)-yl)-4,5,6,7-tetrahydro-1H-pyrazolo[4,3-c]pyridin-1-yl)piperidin-1-yl)acetamido)nonanamido)-N-(4-methyl-5-nitrothiazol-2-yl)benzamide], the “P300/CBP Degradation (100 nM)” value is “D (degradation activity < 30%)”.

Turning to `CC(=O)N1CCc2c(c(N3CCCc4cc(-c5cnn(C)c5)c(C(F)F)cc43)nn2C2CCN(C(=O)CCCCCCCCCCC(=O)Nc3ccccc3C(=O)Nc3nc(C)c([N+](=O)[O-])s3)CC2)C1` [CPD-207, 2-(12-(4-(5-Acetyl-3-(7-(difluoromethyl)-6-(1-methyl-1H-pyrazol-4-yl)-3,4-dihydroquinolin-1(2H)-yl)-4,5,6,7-tetrahydro-1H-pyrazolo[4,3-c]pyridin-1-yl)piperidin-1-yl)-12-oxododecanamido)-N-(4-methyl-5-nitrothiazol-2-yl)benzamide], the “P300/CBP Degradation (100 nM)” value is “D (degradation activity < 30%)”.

Consider `CC(=O)N1CCc2c(c(N3CCCc4cc(-c5cnn(C)c5)c(C(F)F)cc43)nn2C2CCN(CC(=O)NCCCCCCCCCC(=O)Nc3ccccc3C(=O)Nc3nc(C)c([N+](=O)[O-])s3)CC2)C1` [CPD-217, 2-(10-(2-(4-(5-Acetyl-3-(7-(difluoromethyl)-6-(1-methyl-1H-pyrazol-4-yl)-3,4-dihydroquinolin-1(2H)-yl)-4,5,6,7-tetrahydro-1H-pyrazolo[4,3-c]pyridin-1-yl)piperidin-1-yl)acetamido)decanamido)-N-(4-methyl-5-nitrothiazol-2-yl)benzamide], for which the “P300/CBP Degradation (100 nM)” value is reported as “D (degradation activity < 30%)”.

Turning to `CC(=O)N1CCc2c(c(N3CCCc4cc(-c5cnn(C)c5)c(C(F)F)cc43)nn2C2CCN(C(=O)CCCCCCCCC(=O)Nc3ccccc3C(=O)Nc3nc(C)c([N+](=O)[O-])s3)CC2)C1` [CPD-205, 2-(10-(4-(5-Acetyl-3-(7-(difluoromethyl)-6-(1-methyl-1H-pyrazol-4-yl)-3,4-dihydroquinolin-1(2H)-yl)-4,5,6,7-tetrahydro-1H-pyrazolo[4,3-c]pyridin-1-yl)piperidin-1-yl)-10-oxodecanamido)-N-(4-methyl-5-nitrothiazol-2-yl)benzamide], the “P300/CBP Degradation (100 nM)” value is “D (degradation activity < 30%)”.

Take `CC(=O)N1CCc2c(c(N3CCCc4cc(-c5cnn(C)c5)c(C(F)F)cc43)nn2C2CCN(CC(=O)NCC(=O)Nc3ccccc3C(=O)Nc3nc(C)c([N+](=O)[O-])s3)CC2)C1` [CPD-209, 2-(2-(2-(4-(5-Acetyl-3-(7-(difluoromethyl)-6-(1-methyl-1H-pyrazol-4-yl)-3,4-dihydroquinolin-1(2H)-yl)-4,5,6,7-tetrahydro-1H-pyrazolo[4,3-c]pyridin-1-yl)piperidin-1-yl)acetamido)acetamido)-N-(4-methyl-5-nitrothiazol-2-yl)benzamide]: the “P300/CBP Degradation (100 nM)” value was “D (degradation activity < 30%)”.

As for `CC(=O)N1CCc2c(c(N3CCCc4cc(-c5cnn(C)c5)c(C(F)F)cc43)nn2C2CCN(C(=O)CCCCCCCCCC(=O)Nc3ccccc3C(=O)Nc3nc(C)c([N+](=O)[O-])s3)CC2)C1` [CPD-206, 2-(11-(4-(5-Acetyl-3-(7-(difluoromethyl)-6-(1-methyl-1H-pyrazol-4-yl)-3,4-dihydroquinolin-1(2H)-yl)-4,5,6,7-tetrahydro-1H-pyrazolo[4,3-c]pyridin-1-yl)piperidin-1-yl)-11-oxoundecanamido)-N-(4-methyl-5-nitrothiazol-2-yl)benzamide], the “P300/CBP Degradation (100 nM)” value is on record as “D (degradation activity < 30%)”.

`CC(=O)N1CCc2c(c(N3CCCc4cc(-c5cnn(C)c5)c(C(F)F)cc43)nn2C2CCN(CC(=O)NCCOCCNc3ccc(C(=O)Nc4ncc(C)s4)c(C)c3)CC2)C1` [CPD-197, 4-((2-(2-(2-(4-(5-Acetyl-3-(7-(difluoromethyl)-6-(1-methyl-1H-pyrazol-4-yl)-3,4-dihydroquinolin-1(2H)-yl)-4,5,6,7-tetrahydro-1H-pyrazolo[4,3-c]pyridin-1-yl)piperidin-1-yl)acetamido)ethoxy)ethyl)amino)-2-methyl-N-(5-methylthiazol-2-yl)benzamide]: the “P300/CBP Degradation (100 nM)” value is on record as “D (degradation activity < 30%)”.
